Test: molar heat capacity at constant volume
Conditions: Liquid, Vacuum adiabatic calorimetry

COC [dimethyl ether]
Conditions | molar heat capacity at constant volume [J/K/mol]
157.53 K, 4013 kPa | 69.69
159.72 K, 8322 kPa | 69.6
161.9 K, 12544 kPa | 69.78
164.07 K, 16672 kPa | 69.67
166.23 K, 20708 kPa | 69.85
168.38 K, 24704 kPa | 69.65
170.51 K, 28650 kPa | 69.79
172.64 K, 32529 kPa | 70.05
176.39 K, 3776 kPa | 68.85
178.57 K, 7593 kPa | 68.76
180.74 K, 11350 kPa | 68.76
182.9 K, 15062 kPa | 68.62
185.05 K, 18718 kPa | 68.78
187.2 K, 22325 kPa | 68.84
189.34 K, 25885 kPa | 68.95
191.46 K, 29382 kPa | 69
193.58 K, 32823 kPa | 69.21
200.6 K, 3313 kPa | 68.02
202.77 K, 6569 kPa | 67.99
204.93 K, 9792 kPa | 67.7
207.08 K, 12969 kPa | 68.02
209.23 K, 16115 kPa | 68
211.37 K, 19219 kPa | 68.42
213.5 K, 22288 kPa | 68.53
215.62 K, 25311 kPa | 68.58
217.74 K, 28297 kPa | 69.12
219.85 K, 31246 kPa | 69
223.34 K, 2896 kPa | 67.94
225.51 K, 5714 kPa | 67.91
227.67 K, 8494 kPa | 68.08
229.82 K, 11254 kPa | 68.44
231.97 K, 13976 kPa | 68.41
234.11 K, 16676 kPa | 68.64
236.24 K, 19342 kPa | 68.9
238.36 K, 21979 kPa | 68.71
240.48 K, 24585 kPa | 68.77
242.59 K, 27158 kPa | 69.15
244.69 K, 29702 kPa | 69.45
245.08 K, 2602 kPa | 68.32
246.78 K, 32213 kPa | 69.76
247.24 K, 5030 kPa | 68.61
249.4 K, 7443 kPa | 68.82
251.55 K, 9828 kPa | 69.15
253.7 K, 12195 kPa | 69.1
255.84 K, 14539 kPa | 69.14
257.97 K, 16865 kPa | 69.11
260.09 K, 19157 kPa | 69.43
261.13 K, 2479 kPa | 69.34
262.21 K, 21436 kPa | 69.63
263.3 K, 4661 kPa | 69.49
264.32 K, 23690 kPa | 69.84
265.47 K, 6829 kPa | 69.28
266.43 K, 25920 kPa | 69.92
267.63 K, 8973 kPa | 69.82
268.52 K, 28128 kPa | 69.96
269.79 K, 11103 kPa | 69.61
270.62 K, 30316 kPa | 69.95
271.93 K, 13210 kPa | 69.63
272.69 K, 32476 kPa | 70.7
274.07 K, 15304 kPa | 70.14
276.21 K, 17379 kPa | 70.25
278.33 K, 19435 kPa | 70.27
279.17 K, 2674 kPa | 69.72
280.45 K, 21472 kPa | 70.38
281.36 K, 4596 kPa | 69.98
282.56 K, 23487 kPa | 70.94
283.54 K, 6506 kPa | 69.97
284.67 K, 25491 kPa | 70.96
285.71 K, 8399 kPa | 70.42
286.77 K, 27476 kPa | 70.72
287.87 K, 10279 kPa | 70.77
288.86 K, 29439 kPa | 71.64
290.03 K, 12145 kPa | 71.02
290.95 K, 31396 kPa | 71.89
292.18 K, 14000 kPa | 71.24
293.04 K, 33333 kPa | 71.85
294.33 K, 15843 kPa | 71.24
296.47 K, 17674 kPa | 70.96
298.61 K, 19489 kPa | 71.48
300.73 K, 2646 kPa | 71.27
300.75 K, 21296 kPa | 71.95
302.88 K, 23091 kPa | 71.44
302.96 K, 4292 kPa | 71.08
305.01 K, 24872 kPa | 71.85
305.18 K, 5930 kPa | 71.96
307.14 K, 26644 kPa | 72.77
307.41 K, 7569 kPa | 72.11
309.27 K, 28409 kPa | 73.16
309.62 K, 9196 kPa | 71.88
311.39 K, 30163 kPa | 72.97
311.84 K, 10814 kPa | 72.56
313.52 K, 31911 kPa | 73.2
314.06 K, 12436 kPa | 72.39
315.65 K, 33651 kPa | 73
316.28 K, 14048 kPa | 72.58
318.5 K, 15656 kPa | 72.87
320.54 K, 2597 kPa | 72.71
320.74 K, 17265 kPa | 73.03
322.97 K, 18872 kPa | 73.22
323.02 K, 4128 kPa | 72.98
325.22 K, 20482 kPa | 73.26
325.5 K, 5662 kPa | 73.54
327.49 K, 22098 kPa | 73.84
328.01 K, 7206 kPa | 73.45
329.78 K, 23723 kPa | 73.46
330.53 K, 8756 kPa | 73.25
332.09 K, 25355 kPa | 73.79
333.07 K, 10311 kPa | 73.52
334.44 K, 27002 kPa | 74.11
335.63 K, 11877 kPa | 73.69
336.81 K, 28665 kPa | 74.55
338.21 K, 13448 kPa | 74.18
339.21 K, 30343 kPa | 75.43
340.82 K, 15034 kPa | 74.59
341.66 K, 32044 kPa | 75.07
343.45 K, 16629 kPa | 74.42
344.14 K, 33761 kPa | 74.99

Source: the NIST ThermoML archive (doi:10.1021/acs.jced.8b00037)
